Source: US20230114627A1, “COMPOSITION COMPRISING A METAL ASCORBO-CAMPHORATE COMPOUND AND METHOD FOR PREVENTION AND/OR TREATMENT OF PAPILLOMAVIRUS INFECTIONS” (MGB PHARMA Inc., priority 2020, published 2023)

Test system: HEC-1A cells
Experiment: Cytokine/chemokine MultiPlex assay (BioPlex 200) of HEC-1A secretion
Assay type: cell-based
Conditions: 24 hours
Source text: In the model as provided in this example, a method to assess the pro-inflammatory character of antivirals intended to be applied as mucosal topicals was used.
Epithelial cells are capable of secreting a set of molecules called cytokines and chemokines, which are responsible for the recruitment and activation of immune cells at the site of secretion. This process can be deleterious in the context of sexual transmission of HIV-1 because the recruited cells are the preferred targets of the virus. […] A microbicide candidate should therefore not promote inflammation by activating the production of this type of molecule by the cells directly in contact with the substance (epithelial cells). These secretions can be deleterious in the context of sexual transmission of HIV-1 or HPV and other papillomaviruses because the recruited cells are the preferred targets of the virus. A microbicide candidate must thus not promote inflammation by activating the production of these types of molecules by the cells in contact with the substance (epithelial cells).
After 24 hours of incubation, a panel of 48 inflammation-related cytokines/chemokines is assayed by MultiPlex (BioPlex 200 BioRad) in the basal medium.

Substance: zinc tetra-ascorbo-camphorate [C14]
- IL-12ρ40 (10 μM): 0 pg/mL
- IL-13 (10 μM): 4.145 pg/mL
- IL-15 (10 μM): 0 pg/mL
- IL-16 (10 μM): 0 pg/mL
- IL-17 (10 μM): 0 pg/mL
- IL-18 (10 μM): 0 pg/mL
- IP-10 (10 μM): 7.165 pg/mL
- LIF (10 μM): 0 pg/mL
- M-CSF (10 μM): 4.805 pg/mL
- MCP-1 (10 μM): 7.55 pg/mL
- MCP-3 (10 μM): 0 pg/mL
- MIF (10 μM): 1.06 pg/mL
- MIG (10 μM): 3.76 pg/mL
- MIP-1α (10 μM): 2.065 pg/mL
- MIP-1β (10 μM): 1.555 pg/mL
- PDGF-β (10 μM): 2.805 pg/mL
- RANTES (10 μM): 12.995 pg/mL
- SCF (10 μM): 0 pg/mL
- SCGF-β (10 μM): 255.82 pg/mL
- SDF-1α (10 μM): 11.41 pg/mL
- TNF-α (10 μM): 6.985 pg/mL
- TNF-β (10 μM): 0 pg/mL
- TRAIL (10 μM): 5.025 pg/mL
- VEGF (10 μM): 1530.905 pg/mL
- β-NGF (10 μM): 0.86 pg/mL
- CTACK (100 μM): 2.585 pg/mL
- Eotaxin (100 μM): 0 pg/mL
- FGF (100 μM): 1.635 pg/mL
- G-CSF (100 μM): 1.885 pg/mL
- GM-CSF (100 μM): 9.51 pg/mL
- GROα (100 μM): 0 pg/mL
- HGF (100 μM): 4.58 pg/mL
- IFN-α2 (100 μM): 4.08 pg/mL
- IFN-γ (100 μM): 89.85 pg/mL
- IL-1rα (100 μM): 10.3 pg/mL
- IL-1α (100 μM): 0 pg/mL
- IL-1β (100 μM): 0.34 pg/mL
- IL-2 (100 μM): 0.02 pg/mL
- IL-2rα (100 μM): 3.245 pg/mL
- IL-3 (100 μM): 5.495 pg/mL
- IL-4 (100 μM): 0.33 pg/mL
- IL-5 (100 μM): 0 pg/mL
- IL-6 (100 μM): 0.255 pg/mL
- IL-7 (100 μM): 4.495 pg/mL
- IL-8 (100 μM): 783.255 pg/mL
- IL-9 (100 μM): 22.305 pg/mL
- IL-10 (100 μM): 3.505 pg/mL
- IL-12 (100 μM): 99.355 pg/mL
- IL-12ρ40 (100 μM): 0 pg/mL
- IL-13 (100 μM): 3.735 pg/mL
- IL-15 (100 μM): 0 pg/mL
- IL-16 (100 μM): 0 pg/mL
- IL-17 (100 μM): 0 pg/mL
- IL-18 (100 μM): 0 pg/mL
- IP-10 (100 μM): 0 pg/mL
- LIF (100 μM): 0 pg/mL
- M-CSF (100 μM): 4.725 pg/mL
- MCP-1 (100 μM): 5.3 pg/mL
- MCP-3 (100 μM): 0 pg/mL
- MIF (100 μM): 1.06 pg/mL
- MIG (100 μM): 2.75 pg/mL
- MIP-1α (100 μM): 1.77 pg/mL
- MIP-1β (100 μM): 1.26 pg/mL
- PDGF-β (100 μM): 3.58 pg/mL
- RANTES (100 μM): 12.205 pg/mL
- SCF (100 μM): 0 pg/mL
- SCGF-β (100 μM): 228.825 pg/mL
- SDF-1α (100 μM): 11.41 pg/mL
- TNF-α (100 μM): 5.465 pg/mL
- TNF-β (100 μM): 0 pg/mL
- TRAIL (100 μM): 5.025 pg/mL
- VEGF (100 μM): 1469.495 pg/mL
- β-NGF (100 μM): 0.95 pg/mL
- CTACK (500 μM): 3.425 pg/mL
- Eotaxin (500 μM): 3.21 pg/mL
- FGF (500 μM): 1.925 pg/mL
- G-CSF (500 μM): 2.3 pg/mL
- GM-CSF (500 μM): 7.53 pg/mL
- GROα (500 μM): 2.75 pg/mL
- HGF (500 μM): 6.22 pg/mL
- IFN-α2 (500 μM): 3.58 pg/mL
- IFN-γ (500 μM): 98.775 pg/mL
- IL-1rα (500 μM): 14.09 pg/mL
- IL-1α (500 μM): 0 pg/mL
- IL-1β (500 μM): 0.415 pg/mL
- IL-2 (500 μM): 0.28 pg/mL
- IL-2rα (500 μM): 4.39 pg/mL
- IL-3 (500 μM): 6.785 pg/mL
- IL-4 (500 μM): 0.295 pg/mL
- IL-5 (500 μM): 0 pg/mL
- IL-6 (500 μM): 0.79 pg/mL
- IL-7 (500 μM): 4.66 pg/mL
- IL-8 (500 μM): 1219.13 pg/mL
- IL-9 (500 μM): 30.4 pg/mL
- IL-10 (500 μM): 4.165 pg/mL
- IL-12 (500 μM): 121.285 pg/mL
- IL-12ρ40 (500 μM): 0 pg/mL
- IL-13 (500 μM): 4.555 pg/mL
- IL-15 (500 μM): 0 pg/mL
- IL-16 (500 μM): 0 pg/mL
- IL-17 (500 μM): 0 pg/mL
- IL-18 (500 μM): 0 pg/mL
- IP-10 (500 μM): 10.765 pg/mL
- LIF (500 μM): 0 pg/mL
- M-CSF (500 μM): 3.995 pg/mL
- MCP-1 (500 μM): 5.165 pg/mL
- MCP-3 (500 μM): 0 pg/mL
- MIF (500 μM): 5.26 pg/mL
- MIG (500 μM): 3.09 pg/mL
- MIP-1α (500 μM): 2.04 pg/mL
- MIP-1β (500 μM): 1.655 pg/mL
- PDGF-β (500 μM): 6.19 pg/mL
- RANTES (500 μM): 13.835 pg/mL
- SCF (500 μM): 0 pg/mL
- SCGF-β (500 μM): 128.865 pg/mL
- SDF-1α (500 μM): 11.41 pg/mL
- TNF-α (500 μM): 10.49 pg/mL
- TNF-β (500 μM): 0 pg/mL
- TRAIL (500 μM): 3.43 pg/mL
- VEGF (500 μM): 1814.38 pg/mL
- β-NGF (500 μM): 0.995 pg/mL
